Molecular target: PCSK9 (Homo sapiens, UniProt Q8NBP7)
Test: BODIPY-LDL uptake assay in HepG2 cells
Assay type: cell-based
Settings: 5 μg/ml PCSK9, BODIPY-LDL
Experimental: BODIPY-LDL Uptake Assay in HepG2 Cells.
An established assay for PCSK9 inhibition features uptake of fluorescently labeled LDL nanoparticles (BODIPY-LDL) by hepatocytes and uptake of the BODIPY-containing particles is maximized in the absence of PCSK9.
In the LDL uptake assay, HepG2 cells were seeded at a density of 6×10^4 cells/well in a 96-well plate. After 24 h, the test compounds at various concentrations were pre-incubated with 5 μg/ml PCSK9 in 0.2% DMSO for 60 min prior to the addition on to the cells. After 16 h the medium was removed and 1 μg/ml BODIPY-LDL (Invitrogen) in serum free media was added and incubated for 5 h. Then the cells were washed twice with 0.25% BSA in PBS. Then the fluorescence of the cells in PBS was measured using TECAN multimode reader (Excitation: 485 nm and Emission: 520 nm). The readings were taken in triplicate and the final values were normalized with the protein concentration from respective wells. The wells without test compound containing external PCSK9 is considered as zero uptake and the one without PCSK9 was considered as 100% uptake. The percentage increase in LDL uptake for the test compounds were calculated using these values.

Sequence of PCSK9 (Q8NBP7 153-692): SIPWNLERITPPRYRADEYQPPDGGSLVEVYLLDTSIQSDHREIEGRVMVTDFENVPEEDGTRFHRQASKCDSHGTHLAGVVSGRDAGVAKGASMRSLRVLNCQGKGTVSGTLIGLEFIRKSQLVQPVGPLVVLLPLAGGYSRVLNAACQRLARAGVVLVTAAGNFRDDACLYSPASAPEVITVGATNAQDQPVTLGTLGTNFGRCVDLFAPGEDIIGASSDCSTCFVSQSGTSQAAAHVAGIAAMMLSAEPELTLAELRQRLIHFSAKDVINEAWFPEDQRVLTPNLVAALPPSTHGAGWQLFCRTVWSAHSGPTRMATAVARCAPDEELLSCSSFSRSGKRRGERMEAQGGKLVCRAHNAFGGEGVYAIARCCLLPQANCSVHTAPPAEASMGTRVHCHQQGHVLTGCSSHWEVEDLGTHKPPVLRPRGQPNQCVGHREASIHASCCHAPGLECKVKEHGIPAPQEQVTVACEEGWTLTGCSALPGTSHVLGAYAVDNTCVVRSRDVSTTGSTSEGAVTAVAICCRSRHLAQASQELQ

Row | SMILES | % increase in LDL Uptake (1 μM test compound) | % increase in LDL Uptake (10 μM test compound) | % increase in LDL Uptake (30 μM test compound)
1 | O=C(c1ccc(C2(O)COC2)cc1)N1CCC(c2ccc(O)cc2)CC1 [Example 63, (4-(3-hydroxyoxetan-3-yl)phenyl)(4-(4-hydroxyphenyl)piperidin-1-yl)methanone] | 12% | 18% | 0%
2 | COC1(c2ccc(C(=O)N3CCC(c4cccc(C(F)(F)F)c4)CC3)cc2)COC1 [Example 37, (4-(3-methoxyoxetan-3-yl)phenyl)(4-(3-(trifluoromethyl)phenyl)piperidin-1-yl)methanone] | 31% | 65% | 36%
3 | CC(C)COC1(c2ccc(C(=O)N3CC4CN(c5ccc(C(F)(F)F)cc5)CC4C3)cc2)COC1 (stereo not drawn) [Example 135, (4-(3-isobutoxyoxetan-3-yl)phenyl)(5-(4-(trifluoromethyl)phenyl)hexahydropyrrolo[3,4-c]pyrrol-2(1H)-yl)methanone] | 5% | 17% | 47%
4 | O=C(c1cccc(C2(O)COC2)c1)N1CCC(c2ccc(C(F)(F)F)c(F)c2)CC1 [Example 121, (4-(3-fluoro-4-(trifluoromethyl)phenyl)piperidin-1-yl)(3-(3-hydroxyoxetan-3-yl)phenyl)methanone] | 0% | 22% | 18%
5 | CCS(=O)(=O)CCOC1(c2ccc(C(=O)N3CCC(c4ccc(C(F)(F)F)cc4)CC3)cc2)COC1 [Example 190, (4-(3-(2-(ethylsulfonyl)ethoxy)oxetan-3-yl)phenyl)(4-(4-(trifluoromethyl)phenyl)piperidin-1-yl)methanone] | 0% | 90% | 62%
6 | COC1(c2cccc(C(=O)N3CCCC(c4ccc(C(F)(F)F)cc4)C3)c2)COC1 (stereo not drawn) [Example 51, (3-(3-methoxyoxetan-3-yl)phenyl)(3-(4-(trifluoromethyl)phenyl)piperidin-1-yl)methanone] | 11% | 79% | 131%
7 | CC(C)(CCCCCOC1(c2ccc(C(=O)N3CCC(c4ccc(C(F)(F)F)cc4)CC3)cc2)COC1)C(=O)O [Example 109, 2,2-dimethyl-7-((3-(4-(4-(4-(trifluoromethyl)phenyl)piperidine-1-carbonyl)phenyl)oxetan-3-yl)oxy)heptanoic acid] | 5% | 29% | 31%
8 | CN1CCN(c2cc(NC(=O)C3CCN(c4ccc(C(F)(F)F)cc4)CC3)cc(C3(O)COC3)c2)CC1 [Example 201, N-(3-(3-hydroxyoxetan-3-yl)-5-(4-methylpiperazin-1-yl)phenyl)-1-(4-(trifluoromethyl)phenyl)piperidine-4-carboxamide] | 0% | 0% | 73%
9 | CCOC1(c2ccc(C(=O)N3CC4=C(C3)CN(c3ccc(C(F)(F)F)cc3)C4)cc2)COC1 [Example 104, (4-(3-ethoxyoxetan-3-yl)phenyl)(5-(4-(trifluoromethyl)phenyl)-3,4,5,6-tetrahydropyrrolo[3,4-c]pyrrol-2(1H)-yl)methanone] | 1% | 30% | 18%
10 | O=C(c1cccc(C2(O)COC2)c1)N1CCCC(c2ccc(C(F)(F)F)cc2)C1 (stereo not drawn) [Example 48, (3-(3-hydroxyoxetan-3-yl)phenyl)(3-(4-(trifluoromethyl)phenyl)piperidin-1-yl)methanone] | 0% | 142% | 234%
11 | COC1(c2ccc(C3(O)CCN(c4ccc(C(F)(F)F)cc4)CC3)cc2)COC1 [Example 73, 4-(4-(3-methoxyoxetan-3-yl)phenyl)-1-(4-(trifluoromethyl)phenyl) piperidin-4-ol] | 0% | 8% | 0%
12 | O=C(c1ccc(C2(OCCO)COC2)cc1)N1CC2CN(c3ccc(C(F)(F)F)cc3)CC2C1 (stereo not drawn) [Example 12, (4-(3-(2-hydroxyethoxy)oxetan-3-yl)phenyl)(5-(4-(trifluoromethyl)phenyl)hexahydropyrrolo[3,4-c]pyrrol-2(1H)-yl)methanone] | 21% | 32% | 34%
13 | CC(C)OC1(c2ccc(C(=O)N3CC4CN(c5ccc(C(F)(F)F)cc5)CC4C3)cc2)COC1 (stereo not drawn) [Example 136, (4-(3-isopropoxyoxetan-3-yl)phenyl)(5-(4-(trifluoromethyl)phenyl)hexahydropyrrolo[3,4-c]pyrrol-2(1H)-yl)methanone] | 11% | 12% | 14%
14 | COC1(c2ccc(C(=O)N3CC4CN(c5ccc(C(F)(F)F)cn5)CC4C3)cc2)COC1 (stereo not drawn) [Example 209, (4-(3-methoxyoxetan-3-yl)phenyl)(5-(5-(trifluoromethyl)pyridin-2-yl)hexahydropyrrolo[3,4-c]pyrrol-2(1H)-yl)methanone] | 20% | 137% | 21%
15 | Cn1nc(-c2ccc(C(F)(F)F)cc2)c2c1CN(C(=O)c1ccc(C3(O)COC3)cc1)C2 [Example 20, (4-(3-hydroxyoxetan-3-yl)phenyl)(1-methyl-3-(4-(trifluoromethyl)phenyl)-4,6-dihydropyrrolo[3,4-c]pyrazol-5(1H)-yl)methanone] | 0% | 7% | 18%
16 | COc1ccc(C2CCN(C(=O)c3ccc(C4(O)COC4)cc3)CC2)cc1 [Example 27, (4-(3-hydroxyoxetan-3-yl)phenyl)(4-(4-methoxyphenyl)piperidin-1-yl)methanone] | 14% | 21% | 38%
17 | COCCOC1(c2ccc(C(=O)N3CC4CN(c5ccc(C(F)(F)F)cc5)CC4C3)cc2)COC1 (stereo not drawn) [Example 137, (4-(3-(2-methoxyethoxy)oxetan-3-yl)phenyl)(5-(4-(trifluoromethyl)phenyl)hexahydropyrrolo[3,4-c]pyrrol-2(1H)-yl)methanone] | 0% | 66% | 116%
18 | O=C(c1ccc(C2(O)CS(=O)(=O)C2)cc1)N1CC2CN(c3ccc(C(F)(F)F)cc3)CC2C1 (stereo not drawn) [Example 61, (4-(3-hydroxy-1,1-dioxidothietan-3-yl)phenyl)(5-(4-(trifluoromethyl)phenyl)hexahydropyrrolo[3,4-c]pyrrol-2(1H)-yl)methanone] | 13% | 32% | 37%
19 | Cc1ccc(C2=CC3CN(C(=O)c4ccc(C5(O)COC5)cc4)CC3C2)cc1 (stereo not drawn) [Example 130, (4-(3-hydroxyoxetan-3-yl)phenyl)(5-(p-tolyl)-3,3a,6,6a-tetrahydrocyclopenta[c]pyrrol-2(1H)-yl)methanone] | −19% | 20% | 74%
20 | O=C(c1cccc(C2(O)COC2)c1)N1CC2CN(c3ccc(C(F)(F)F)cn3)CC2C1 (stereo not drawn) [Example 210, (3-(3-hydroxyoxetan-3-yl)phenyl)(5-(5-(trifluoromethyl)pyridin-2-yl)hexahydropyrrolo[3,4-c]pyrrol-2(1H)-yl)methanone] | 0% | 107% | 0%
